Results on two compounds are retold here after paper PMC8213057, “Targeting ALK2: An Open Science Approach to Developing Therapeutics for the Treatment of Diffuse Intrinsic Pontine Glioma” (Journal of Medicinal Chemistry, 2020).

For one test, the target named is T1, TNIK (Homo sapiens, UniProt Q9UKE5).
T1 construct: purchased Reaction Biology Corporation
Description: 375-member kinase panel. The following applies: Run 1, Run 2; for % enzyme activity: 1 μM. The format is biochemical.

For another test, the target named is CK2a2 (Homo sapiens, UniProt P19784). The following applies: 1 μM; Run 1, Run 2.
The target of the next test is T2, DRAK1/STK17A (Homo sapiens, UniProt Q9UEE5).
T2 sequence (Q9UEE5 1-414): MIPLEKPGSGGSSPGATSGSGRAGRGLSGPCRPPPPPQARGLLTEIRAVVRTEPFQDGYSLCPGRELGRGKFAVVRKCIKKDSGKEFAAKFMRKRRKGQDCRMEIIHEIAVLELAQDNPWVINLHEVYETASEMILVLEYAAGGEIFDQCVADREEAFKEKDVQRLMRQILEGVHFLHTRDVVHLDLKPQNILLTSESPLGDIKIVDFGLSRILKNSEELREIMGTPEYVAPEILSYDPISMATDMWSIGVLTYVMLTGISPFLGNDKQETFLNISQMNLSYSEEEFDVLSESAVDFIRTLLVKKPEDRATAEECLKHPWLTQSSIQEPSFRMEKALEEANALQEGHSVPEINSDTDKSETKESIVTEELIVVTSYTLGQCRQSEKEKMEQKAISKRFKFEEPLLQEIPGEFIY
The following applies: 1 μM; Run 1, Run 2.

The target in the next test is MAPKAPK3 (Homo sapiens, UniProt Q16644). The following applies: 1 μM; Run 1, Run 2.
For another test, the target named is T3, MST1/STK4 (Homo sapiens, UniProt Q13043).
T3 sequence (Q13043 1-487): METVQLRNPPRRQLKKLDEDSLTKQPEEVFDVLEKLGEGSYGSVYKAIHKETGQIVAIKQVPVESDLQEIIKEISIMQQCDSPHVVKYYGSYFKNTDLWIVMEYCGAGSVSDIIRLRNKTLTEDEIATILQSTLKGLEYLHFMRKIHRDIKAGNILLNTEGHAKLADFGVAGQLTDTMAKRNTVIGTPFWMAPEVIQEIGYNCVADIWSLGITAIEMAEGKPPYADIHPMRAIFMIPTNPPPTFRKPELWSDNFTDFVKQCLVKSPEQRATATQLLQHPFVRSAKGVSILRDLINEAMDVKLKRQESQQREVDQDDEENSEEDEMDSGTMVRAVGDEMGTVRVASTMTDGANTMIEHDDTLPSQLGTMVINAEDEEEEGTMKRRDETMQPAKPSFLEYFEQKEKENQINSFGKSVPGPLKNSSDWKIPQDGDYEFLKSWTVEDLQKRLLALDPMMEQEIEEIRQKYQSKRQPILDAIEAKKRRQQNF
To be noted: 1 μM; Run 1, Run 2.

The next test addresses PKN1/PRK1 (Homo sapiens, UniProt Q16512). To be noted: 1 μM; Run 1, Run 2.
The target of the next test is RIPK2 (Homo sapiens, UniProt O43353). To be noted: 1 μM; Run 1, Run 2.
Another test concerns the target RIPK3 (Homo sapiens, UniProt Q9Y572). To be noted: 1 μM; Run 1, Run 2.
The target in the next test is T4, YSK4/MAP3K19 (Homo sapiens, UniProt Q56UN5).
T4 sequence (Q56UN5 1-1328): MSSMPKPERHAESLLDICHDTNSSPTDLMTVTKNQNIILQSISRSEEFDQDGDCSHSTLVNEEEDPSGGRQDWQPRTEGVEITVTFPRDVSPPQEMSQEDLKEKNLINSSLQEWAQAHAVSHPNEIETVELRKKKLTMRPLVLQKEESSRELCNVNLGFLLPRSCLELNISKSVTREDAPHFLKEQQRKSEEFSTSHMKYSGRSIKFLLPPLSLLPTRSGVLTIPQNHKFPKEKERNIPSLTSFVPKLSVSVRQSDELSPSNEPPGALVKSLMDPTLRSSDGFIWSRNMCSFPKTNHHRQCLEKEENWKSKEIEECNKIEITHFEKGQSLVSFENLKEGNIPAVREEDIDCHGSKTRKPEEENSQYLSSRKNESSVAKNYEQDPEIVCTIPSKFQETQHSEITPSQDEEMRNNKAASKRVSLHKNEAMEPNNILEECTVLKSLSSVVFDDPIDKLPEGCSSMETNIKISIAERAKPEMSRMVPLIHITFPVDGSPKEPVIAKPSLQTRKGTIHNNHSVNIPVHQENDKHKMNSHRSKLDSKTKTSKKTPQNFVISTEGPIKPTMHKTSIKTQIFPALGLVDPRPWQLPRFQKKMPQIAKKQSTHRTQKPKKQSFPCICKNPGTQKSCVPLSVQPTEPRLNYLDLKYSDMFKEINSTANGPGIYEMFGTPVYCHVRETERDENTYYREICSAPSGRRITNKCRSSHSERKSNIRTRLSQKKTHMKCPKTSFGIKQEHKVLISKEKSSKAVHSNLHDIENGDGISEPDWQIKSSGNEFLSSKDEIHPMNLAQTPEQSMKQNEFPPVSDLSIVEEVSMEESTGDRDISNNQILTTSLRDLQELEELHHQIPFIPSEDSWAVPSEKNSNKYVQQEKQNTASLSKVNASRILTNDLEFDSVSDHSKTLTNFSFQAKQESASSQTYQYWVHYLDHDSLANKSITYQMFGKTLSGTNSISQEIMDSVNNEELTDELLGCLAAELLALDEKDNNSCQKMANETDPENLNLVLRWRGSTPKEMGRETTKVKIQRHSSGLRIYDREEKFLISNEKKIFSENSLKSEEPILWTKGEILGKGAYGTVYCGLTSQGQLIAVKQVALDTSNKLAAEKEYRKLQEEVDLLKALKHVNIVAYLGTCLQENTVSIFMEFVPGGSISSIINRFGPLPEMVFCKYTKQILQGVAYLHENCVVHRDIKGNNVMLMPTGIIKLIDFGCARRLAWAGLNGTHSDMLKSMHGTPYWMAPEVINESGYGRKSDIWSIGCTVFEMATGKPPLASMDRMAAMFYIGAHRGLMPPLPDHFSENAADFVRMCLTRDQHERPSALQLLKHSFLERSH
To be noted: 1 μM; Run 1, Run 2.

The target in another test is FYN (Homo sapiens, UniProt P06241). The test can be described thus: biochemical. The following applies: read-out: % enzyme activity, 1 μM; Run 1, Run 2.
In a further test the target is MSSK1/STK23 (Homo sapiens, UniProt Q9UPE1). The test can be described thus: biochemical. To be noted: read-out: % enzyme activity, 1 μM; Run 1, Run 2.
The target in another test is PKCb2 (Homo sapiens, UniProt P05771). Description: biochemical. To be noted: read-out: % enzyme activity, 1 μM; Run 1, Run 2.
In the next test the target is PKCg (Homo sapiens, UniProt P05129). Description: biochemical. The following applies: read-out: % enzyme activity, 1 μM; Run 1, Run 2.

The structures appear in SMILES notation. Values joined by “and” are separate entries in the source; they are usually repeats but may differ in a detail not shown here. Equal values may be shown once.

T1 sequence (Q9UKE5 whole entry): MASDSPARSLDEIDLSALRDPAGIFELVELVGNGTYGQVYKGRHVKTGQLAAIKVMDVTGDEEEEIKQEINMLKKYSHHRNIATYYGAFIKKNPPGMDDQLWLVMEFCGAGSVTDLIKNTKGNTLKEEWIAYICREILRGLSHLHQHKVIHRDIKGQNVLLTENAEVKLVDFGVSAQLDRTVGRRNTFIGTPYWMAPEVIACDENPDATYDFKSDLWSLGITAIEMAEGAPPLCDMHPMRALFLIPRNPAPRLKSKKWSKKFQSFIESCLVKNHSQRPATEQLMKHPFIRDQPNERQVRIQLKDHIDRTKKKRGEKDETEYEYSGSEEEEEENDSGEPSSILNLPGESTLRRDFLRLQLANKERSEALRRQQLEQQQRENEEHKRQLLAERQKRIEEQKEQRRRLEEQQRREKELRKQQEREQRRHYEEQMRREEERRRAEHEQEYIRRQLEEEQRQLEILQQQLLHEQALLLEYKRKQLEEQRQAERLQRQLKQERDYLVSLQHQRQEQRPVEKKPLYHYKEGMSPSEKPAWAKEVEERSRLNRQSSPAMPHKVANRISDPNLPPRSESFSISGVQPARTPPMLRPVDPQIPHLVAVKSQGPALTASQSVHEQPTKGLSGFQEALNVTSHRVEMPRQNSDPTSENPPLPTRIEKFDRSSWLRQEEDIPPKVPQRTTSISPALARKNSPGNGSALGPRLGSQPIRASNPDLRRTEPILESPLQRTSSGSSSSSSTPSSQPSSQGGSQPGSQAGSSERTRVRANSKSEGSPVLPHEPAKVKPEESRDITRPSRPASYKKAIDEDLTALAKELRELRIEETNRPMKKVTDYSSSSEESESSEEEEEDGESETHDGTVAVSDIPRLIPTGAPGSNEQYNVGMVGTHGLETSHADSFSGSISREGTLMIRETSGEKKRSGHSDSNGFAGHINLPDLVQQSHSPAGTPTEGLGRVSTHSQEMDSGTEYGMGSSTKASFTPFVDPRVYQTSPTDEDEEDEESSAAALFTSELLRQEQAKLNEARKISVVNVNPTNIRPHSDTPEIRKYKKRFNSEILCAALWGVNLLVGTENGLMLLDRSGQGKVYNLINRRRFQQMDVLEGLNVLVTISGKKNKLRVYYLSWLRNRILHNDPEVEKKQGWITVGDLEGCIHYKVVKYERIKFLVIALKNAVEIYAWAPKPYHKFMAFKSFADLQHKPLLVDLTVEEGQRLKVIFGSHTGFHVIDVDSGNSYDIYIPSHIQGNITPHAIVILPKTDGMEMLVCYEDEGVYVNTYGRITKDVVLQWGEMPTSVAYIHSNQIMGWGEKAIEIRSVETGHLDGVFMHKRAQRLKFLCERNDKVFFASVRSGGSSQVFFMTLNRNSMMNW
Sequence of RIPK2 (O43353 whole entry): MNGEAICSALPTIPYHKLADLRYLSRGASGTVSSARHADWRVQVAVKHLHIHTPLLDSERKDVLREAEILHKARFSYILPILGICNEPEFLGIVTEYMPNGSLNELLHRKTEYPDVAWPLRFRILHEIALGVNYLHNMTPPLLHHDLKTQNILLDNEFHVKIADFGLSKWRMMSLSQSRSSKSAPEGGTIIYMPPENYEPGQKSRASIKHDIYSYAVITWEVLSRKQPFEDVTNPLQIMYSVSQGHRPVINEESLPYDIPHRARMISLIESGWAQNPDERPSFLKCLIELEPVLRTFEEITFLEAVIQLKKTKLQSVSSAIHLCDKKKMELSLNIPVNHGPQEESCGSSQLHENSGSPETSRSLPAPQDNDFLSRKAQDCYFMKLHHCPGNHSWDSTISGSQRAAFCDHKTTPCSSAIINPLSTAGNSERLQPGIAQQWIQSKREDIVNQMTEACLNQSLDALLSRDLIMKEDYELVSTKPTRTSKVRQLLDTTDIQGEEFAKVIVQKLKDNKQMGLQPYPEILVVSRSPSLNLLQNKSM
Sequence of PKN1/PRK1 (Q16512 whole entry): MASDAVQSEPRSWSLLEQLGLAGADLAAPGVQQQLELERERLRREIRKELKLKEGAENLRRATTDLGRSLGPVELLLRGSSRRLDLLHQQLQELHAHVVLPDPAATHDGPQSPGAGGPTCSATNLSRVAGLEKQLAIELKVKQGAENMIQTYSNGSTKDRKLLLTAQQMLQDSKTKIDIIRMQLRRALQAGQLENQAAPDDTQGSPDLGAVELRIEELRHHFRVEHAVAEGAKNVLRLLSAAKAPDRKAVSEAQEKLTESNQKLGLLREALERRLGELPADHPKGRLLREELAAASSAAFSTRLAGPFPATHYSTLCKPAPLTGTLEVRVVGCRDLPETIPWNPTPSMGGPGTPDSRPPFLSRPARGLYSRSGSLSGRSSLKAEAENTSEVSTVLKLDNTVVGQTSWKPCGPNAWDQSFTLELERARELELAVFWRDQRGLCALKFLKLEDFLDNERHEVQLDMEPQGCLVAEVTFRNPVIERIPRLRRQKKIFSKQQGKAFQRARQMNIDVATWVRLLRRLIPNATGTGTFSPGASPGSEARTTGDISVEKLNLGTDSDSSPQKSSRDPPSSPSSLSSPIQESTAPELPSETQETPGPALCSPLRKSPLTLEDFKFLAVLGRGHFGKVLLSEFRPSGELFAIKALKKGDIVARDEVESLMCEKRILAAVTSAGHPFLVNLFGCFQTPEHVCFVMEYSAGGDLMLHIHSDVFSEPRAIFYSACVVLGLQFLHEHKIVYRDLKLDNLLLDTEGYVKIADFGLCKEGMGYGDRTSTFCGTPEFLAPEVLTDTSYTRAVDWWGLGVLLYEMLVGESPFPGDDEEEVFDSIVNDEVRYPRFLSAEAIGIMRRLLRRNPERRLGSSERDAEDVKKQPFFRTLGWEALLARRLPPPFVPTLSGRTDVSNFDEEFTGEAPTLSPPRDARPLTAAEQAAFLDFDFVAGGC
Sequence of FYN (P06241 whole entry): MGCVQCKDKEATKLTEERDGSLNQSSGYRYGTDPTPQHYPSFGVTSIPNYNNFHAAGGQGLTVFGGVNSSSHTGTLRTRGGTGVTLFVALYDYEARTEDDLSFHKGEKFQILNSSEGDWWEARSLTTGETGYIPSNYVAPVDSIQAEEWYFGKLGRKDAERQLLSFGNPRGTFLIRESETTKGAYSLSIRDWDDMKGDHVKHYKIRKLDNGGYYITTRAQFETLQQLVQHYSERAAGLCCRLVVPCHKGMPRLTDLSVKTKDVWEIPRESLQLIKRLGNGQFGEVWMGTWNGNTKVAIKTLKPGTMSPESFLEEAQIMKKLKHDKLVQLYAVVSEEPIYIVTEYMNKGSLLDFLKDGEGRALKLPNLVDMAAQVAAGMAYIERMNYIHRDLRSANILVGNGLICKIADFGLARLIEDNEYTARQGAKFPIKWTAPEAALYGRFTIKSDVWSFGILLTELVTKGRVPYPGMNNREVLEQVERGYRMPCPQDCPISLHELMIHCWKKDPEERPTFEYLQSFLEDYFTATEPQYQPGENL
Sequence of RIPK3 (Q9Y572 whole entry): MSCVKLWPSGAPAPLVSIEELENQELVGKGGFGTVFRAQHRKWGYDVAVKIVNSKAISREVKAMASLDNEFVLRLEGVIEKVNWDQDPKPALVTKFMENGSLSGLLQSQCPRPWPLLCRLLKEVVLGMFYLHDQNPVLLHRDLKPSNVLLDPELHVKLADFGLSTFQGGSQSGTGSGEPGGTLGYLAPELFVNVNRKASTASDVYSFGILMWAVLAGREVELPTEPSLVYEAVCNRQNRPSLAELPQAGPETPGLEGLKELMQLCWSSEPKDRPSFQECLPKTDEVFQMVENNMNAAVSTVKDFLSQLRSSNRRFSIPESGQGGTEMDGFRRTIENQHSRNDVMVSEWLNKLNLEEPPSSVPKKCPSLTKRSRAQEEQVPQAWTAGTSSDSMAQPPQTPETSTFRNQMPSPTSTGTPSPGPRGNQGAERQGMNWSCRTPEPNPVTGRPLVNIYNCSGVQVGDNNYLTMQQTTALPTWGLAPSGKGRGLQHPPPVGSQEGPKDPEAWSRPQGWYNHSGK
Sequence of CK2a2 (P19784 whole entry): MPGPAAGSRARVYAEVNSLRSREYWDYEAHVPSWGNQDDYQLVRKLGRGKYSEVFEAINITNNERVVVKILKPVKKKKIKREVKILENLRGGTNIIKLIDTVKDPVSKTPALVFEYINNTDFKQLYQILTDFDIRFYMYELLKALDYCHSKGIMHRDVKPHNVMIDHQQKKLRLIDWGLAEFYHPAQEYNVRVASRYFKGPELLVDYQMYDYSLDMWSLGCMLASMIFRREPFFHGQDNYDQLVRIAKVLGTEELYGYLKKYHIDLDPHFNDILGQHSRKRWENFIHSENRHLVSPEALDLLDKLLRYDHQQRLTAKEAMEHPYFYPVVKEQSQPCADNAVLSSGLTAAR

For the compound `COc1cc(-c2cncc(-c3ccc(N4CCN(C)CC4)cc3)c2C)cc(F)c1C(N)=O` [Compound 26a, 2-Fluoro-6-methoxy-4-(4-methyl-5-(4-(4-methylpiperazin-1-yl)phenyl)pyridin-3-yl)benzamide], the “% enzyme activity” value was -0.77% and -2.62% at TNIK; 92.27% at CK2a2; 95.60% on DRAK1/STK17A; 99.20% at MAPKAPK3; 100.26% on MST1/STK4; 96.76% on PKN1/PRK1. The “% enzyme activity” value on RIPK2 is 66.31%; at RIPK3, 101.40%; at YSK4/MAP3K19, 97.39%. Further, the remaining activity at 1 µM turned out to be 99.9% at FYN, 99.3% on MSSK1/STK23, 107% at PKCb2 and 97% on PKCg.
`COc1cc(-c2cncc(-c3ccc(N4C[C@@H](C)N(C)[C@@H](C)C4)cc3)c2C)cc(F)c1C(N)=O` [Compound 26c, 2-Fluoro-6-methoxy-4-(4-methyl-5-(4-((3R,5S)-3,4,5-trimethylpiperazin-1-yl)phenyl)pyridin-3-yl)benzamide]: the “% enzyme activity” value is on record as 3.92% at TNIK; 98.98% at CK2a2; 95.69% at DRAK1/STK17A; 96.39% at MAPKAPK3; 101.65% at MST1/STK4; 96.39% on PKN1/PRK1. Also, the results for the “% enzyme activity” value on RIPK2, on RIPK3 and on YSK4/MAP3K19 were 89.10%, 102.83% and 96.61%, respectively. Also, the remaining activity at 1 µM amounted to 4.85% at TNIK (read-out: % enzyme activity, 1 μM); 97% on FYN; 99.8% at MSSK1/STK23; 99.1% at PKCb2; 97.2% on PKCg.
